In ChEMBL document CHEMBL1149227, “The discovery of structurally novel CCR1 antagonists derived from a hydroxyethylene peptide isostere template” (Bioorg Med Chem Lett, 2004):

Tests used:
[1] = molecular target: T1, C-C chemokine receptor type 1 (Homo sapiens, UniProt P32246); assay: Inhibition of CCL3 binding to C-C chemokine receptor type 1
T1 sequence (P32246 whole entry): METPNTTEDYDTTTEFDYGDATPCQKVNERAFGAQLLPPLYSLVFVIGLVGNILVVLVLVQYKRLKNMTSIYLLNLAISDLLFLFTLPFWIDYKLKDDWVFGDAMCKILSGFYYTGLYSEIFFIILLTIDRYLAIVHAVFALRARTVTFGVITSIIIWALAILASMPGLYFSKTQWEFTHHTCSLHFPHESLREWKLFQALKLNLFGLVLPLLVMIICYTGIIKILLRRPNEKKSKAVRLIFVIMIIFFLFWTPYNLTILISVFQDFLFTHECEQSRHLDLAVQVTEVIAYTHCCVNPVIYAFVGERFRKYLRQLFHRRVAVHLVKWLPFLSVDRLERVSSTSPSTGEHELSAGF

Renin = molecular target: T2, Renin (Rattus norvegicus, UniProt P08424); assay: Inhibitory activity of compound against renin was determined
T2 sequence (P08424 whole entry): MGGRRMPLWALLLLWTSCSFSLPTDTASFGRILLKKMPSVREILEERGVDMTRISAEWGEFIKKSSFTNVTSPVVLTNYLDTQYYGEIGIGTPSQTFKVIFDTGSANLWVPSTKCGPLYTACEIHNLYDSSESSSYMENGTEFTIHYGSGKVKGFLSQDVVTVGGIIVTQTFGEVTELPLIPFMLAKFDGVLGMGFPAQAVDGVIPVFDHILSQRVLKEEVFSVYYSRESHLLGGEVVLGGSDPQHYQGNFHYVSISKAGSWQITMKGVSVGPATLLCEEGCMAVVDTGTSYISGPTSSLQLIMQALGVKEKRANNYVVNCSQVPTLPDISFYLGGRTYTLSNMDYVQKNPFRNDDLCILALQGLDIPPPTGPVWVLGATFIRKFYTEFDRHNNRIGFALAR

THP-1 [2] = assay: Inhibition of CCL5 induced chemotaxis in THP-1 cells; type: functional, cell-based; settings: Homo sapiens
THP-1 [3] = assay: (§1) Inhibition of CCL3 induced chemotaxis in THP-1 cells; inactive at a concentration of 25 uM; type: functional, cell-based; settings: Homo sapiens
THP-1 [4] = assay: Inhibition of CCL3 induced chemotaxis in THP-1 cells; type: functional, cell-based; settings: Homo sapiens
THP-1 [5] = assay: as §1; type: functional; settings: Homo sapiens

SMILES	IC50 [1] [µM]	IC50 (THP-1 [3]) [µM]	other results
C=C(Cl)C[C@H](C[C@H](O)[C@H](CC1CCCCC1)NC(=O)c1cc2cc(Cl)ccc2[nH]1)C(=O)NC	> 32		IC50 (Renin): 0.041 µM; IC50 (THP-1 [2]): > 25 µM
CNC(=O)[C@H](CC(C)C)C[C@@H](O)[C@@H](CC1CCCCC1)NC(=O)c1cnc2ccccc2c1		< 50	
CNC(=O)[C@@H](CC(C)C)C[C@H](O)[C@H](CC1CCCCC1)NC(=O)c1cnc2ccccc2c1	30		IC50 (THP-1 [4]): 12 µM
CNC(=O)[C@@H](CC(C)C)C[C@H](O)[C@@H](CC1CCCCC1)NC(=O)c1cnc2ccccc2c1		< 50	
CNC(=O)[C@H](CC(C)C)C[C@H](O)[C@@H](CC1CCCCC1)NC(=O)c1cnc2ccccc2c1			inhibition at 25 µM (THP-1 [5]): < 50%
CC(C)C[C@H](C[C@H](O)[C@H](CC1CCCCC1)NC(=O)c1cnc2ccccc2c1)C(N)=O	8		IC50 (THP-1 [4]): 6.3 µM
CNC(=O)[C@@H](CC(C)C)C[C@@H](O)[C@H](CC1CCCCC1)NC(=O)c1cnc2ccccc2c1			IC50 (THP-1 [4]): 7.7 µM
CNC(=O)[C@H](CC(C)C)C[C@H](O)[C@H](CC1CCCCC1)NC(=O)c1cnc2ccccc2c1	2.3		IC50 (Renin): > 10 µM; IC50 (THP-1 [2]): 0.63 µM
CNC(=O)[C@H](CC(C)C)C[C@H](O)[C@H](Cc1ccccc1)NC(=O)c1cnc2ccccc2c1	0.65		
CNC(=O)[C@@H](CC(C)C)C[C@@H](O)[C@@H](CC1CCCCC1)NC(=O)c1cnc2ccccc2c1	15	< 50	

The next lines start with results.

IC50 [1] [µM]	IC50 (THP-1 [3]) [µM]	SMILES	other results
	> 25	CNC(=O)[C@H](CC(C)C)C[C@@H](O)[C@H](CC1CCCCC1)NC(=O)c1cnc2ccccc2c1	
11.8		CNC(=O)[C@H](CC(C)C)C[C@H](O)[C@H](CC(C)C)NC(=O)c1cnc2ccccc2c1	
	< 50	CNC(=O)[C@H](CC(C)C)C[C@H](O)[C@H](CC1CCCCC1)NS(=O)(=O)c1cnc2ccccc2c1	
	< 50	CC[C@H](C)[C@H](NC(=O)c1cnc2ccccc2c1)[C@@H](O)C[C@@H](CC(C)C)C(=O)NC	
	< 50	CC(C)C[C@H](C[C@H](O)[C@H](CC1CCCCC1)NC(=O)c1cnc2ccccc2c1)C(=O)N(C)C	
